Laboratory results: the supplement of paper PMC11061612

Key:
Carboplatin = compound: C1CC(C1)(C(=O)[O-])C(=O)[O-].N.N.[Pt+2] [Carboplatin]; conditions: max 10 µM
Outline: (§1)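 Cancer cell lines in 1536-well plates (7.5 μl DMEM/F12 or RPMI, 10% FBS) were held 24 hours at 37°C and 5% CO2 and then dosed for 72 hours at a final DMSO of typically 0.2%. Viability was taken from CellTiter-Glo 2.0 luminescence, scaled between blank-well and DMSO-well means. Curves were fitted as two-parameter logistic models with a non-linear mixed effects model, from which the single-agent IC50 was taken.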

AZD5363 = compound: C1CN(CCC1(C(=O)N[C@@H](CCO)C2=CC=C(C=C2)Cl)N)C3=NC=NC4=C3C=CN4 [AZD5363]; conditions: max 10 µM
Outline: as §1

AZD1775 = compound: C=CCn1c(=O)c2cnc(Nc3ccc(N4CCN(C)CC4)cc3)nc2n1-c1cccc(C(C)(C)O)n1 [AZD1775]; conditions: max 3 µM
Outline: as §1

Trametinib = compound: CC(=O)Nc1cccc(-n2c(=O)n(C3CC3)c(=O)c3c(Nc4ccc(I)cc4F)n(C)c(=O)c(C)c32)c1 [Trametinib]; conditions: max 1 µM
Outline: as §1

Paclitaxel = compound: CC(=O)O[C@H]1C(=O)[C@@]2(C)[C@H]([C@H](OC(=O)c3ccccc3)[C@]3(O)C[C@H](OC(=O)[C@H](O)[C@@H](NC(=O)c4ccccc4)c4ccccc4)C(C)=C1C3(C)C)[C@]1(OC(C)=O)CO[C@@H]1C[C@@H]2O [Paclitaxel]; conditions: max 3 µM
Outline: as §1

Palbociclib = compound: CC(=O)c1c(C)c2cnc(Nc3ccc(N4CCNCC4)cn3)nc2n(C2CCCC2)c1=O [Palbociclib]; conditions: max 10 µM
Outline: as §1

AZD1390 = compound: CC(C)n1c(=O)n(C)c2cnc3cc(F)c(-c4ccc(OCCCN5CCCCC5)nc4)cc3c21 [AZD1390]; conditions: max 0.3 µM
Outline: as §1

Venetoclax = compound: CC1(C)CCC(CN2CCN(c3ccc(C(=O)NS(=O)(=O)c4ccc(NCC5CCOCC5)c([N+](=O)[O-])c4)c(Oc4cnc5[nH]ccc5c4)c3)CC2)=C(c2ccc(Cl)cc2)C1 [Venetoclax]; conditions: max 1 µM
Outline: as §1

Dasatinib = compound: CC1=C(C(=CC=C1)Cl)NC(=O)C2=CN=C(S2)NC3=CC(=NC(=N3)C)N4CCN(CC4)CCO [Dasatinib]; conditions: max 2 µM
Outline: as §1

SG3199 = compound: CC1=CN2[C@@H](C1)C=NC3=CC(=C(C=C3C2=O)OC)OCCCCCOC4=C(C=C5C(=C4)N=C[C@@H]6CC(=CN6C5=O)C)OC [SG3199]; conditions: max 0.001 µM
Outline: as §1

AZD2811 = compound: CCN(CCO)CCCOc1ccc2c(Nc3cc(CC(=O)Nc4cccc(F)c4)[nH]n3)ncnc2c1 [AZD2811]; conditions: max 1 µM
Outline: as §1

SN-38 = compound: CCc1c2c(nc3ccc(O)cc13)-c1cc3c(c(=O)n1C2)COC(=O)[C@]3(O)CC [SN-38]; conditions: max 0.3 µM
Outline: as §1

AZD0156 = compound: CN(C)CCCOc1ccc(-c2ccc3ncc4c(c3c2)n(C2CCOCC2)c(=O)n4C)cn1 [AZD0156]; conditions: max 3 µM
Outline: as §1

AZD4320 = compound: CN(CC[C@H](CSC1=CC=CC=C1)NC2=C(C=C(C=C2)S(=O)(=O)NC(=O)C3=CC=C(C=C3)N4CCC(CC4)[C@H](C5=CC=CC=C5C6=CC=C(C=C6)Cl)O)S(=O)(=O)C(F)(F)F)CCO [AZD4320]; conditions: max 1 µM
Outline: as §1

Alisertib = compound: COc1cc(Nc2ncc3c(n2)-c2ccc(Cl)cc2C(c2c(F)cccc2OC)=NC3)ccc1C(=O)O [Alisertib]; conditions: max 10 µM
Outline: as §1

Etoposide = compound: COc1cc([C@@H]2c3cc4c(cc3[C@@H](O[C@@H]3O[C@@H]5CO[C@@H](C)O[C@H]5[C@H](O)[C@H]3O)[C@H]3COC(=O)[C@H]23)OCO4)cc(OC)c1O [Etoposide]; conditions: max 10 µM
Outline: as §1

Gefitinib = compound: COc1cc2ncnc(Nc3ccc(F)c(Cl)c3)c2cc1OCCCN1CCOCC1 [Gefitinib]; conditions: max 10 µM
Outline: as §1

Prexasertib = compound: COc1cccc(OCCCN)c1-c1cc(Nc2cnc(C#N)cn2)n[nH]1 [Prexasertib]; conditions: max 1 µM
Outline: as §1

Doxorubicin = compound: COc1cccc2c1C(=O)c1c(O)c3c(c(O)c1C2=O)C[C@@](O)(C(=O)CO)C[C@@H]3O[C@H]1C[C@H](N)[C@H](O)[C@H](C)O1 [Doxorubicin]; conditions: max 1 µM
Outline: as §1

AZD5153 = compound: COc1nnc2ccc(N3CCC(c4ccc(OCCN5CCN(C)C(=O)[C@H]5C)cc4)CC3)nn12 [AZD5153]; conditions: max 1 µM
Outline: as §1

Lapatinib = compound: CS(=O)(=O)CCNCc1ccc(-c2ccc3ncnc(Nc4ccc(OCc5cccc(F)c5)c(Cl)c4)c3c2)o1 [Lapatinib]; conditions: max 10 µM
Outline: as §1

AZD8186 = compound: C[C@@H](Nc1cc(F)cc(F)c1)c1cc(C(=O)N(C)C)cc2c(=O)cc(N3CCOCC3)oc12 [AZD8186]; conditions: max 10 µM
Outline: as §1

Crizotinib = compound: C[C@@H](Oc1cc(-c2cnn(C3CCNCC3)c2)cnc1N)c1c(Cl)ccc(F)c1Cl [Crizotinib]; conditions: max 10 µM
Outline: as §1

Savolitinib = compound: C[C@@H](c1ccc2nccn2c1)n1nnc2ncc(-c3cnn(C)c3)nc21 [Savolitinib]; conditions: max 1 µM
Outline: as §1

AZD6738 = compound: C[C@@H]1COCCN1C2=NC(=NC(=C2)C3(CC3)[S@](=N)(=O)C)C4=C5C=CNC5=NC=C4 [AZD6738]; conditions: max 10 µM
Outline: as §1

AZD5991 = compound: Cc1c2c(nn1C)CSCc1cc(n(C)n1)CSc1cc(c3ccccc3c1)OCCCc1c(C(=O)O)n(C)c3c-2c(Cl)ccc13 [AZD5991]; conditions: max 1 µM
Outline: as §1

AZD7648 = compound: Cc1cc2ncnn2cc1Nc1ncc2c(n1)n(C1CCOCC1)c(=O)n2C [AZD7648]; conditions: max 10 µM
Outline: as §1

Taselisib = compound: Cc1nc(-c2cn3c(n2)-c2ccc(-c4cnn(C(C)(C)C(N)=O)c4)cc2OCC3)n(C(C)C)n1 [Taselisib]; conditions: max 10 µM
Outline: as §1

Selumetinib = compound: Cn1cnc2c(F)c(Nc3ccc(Br)cc3Cl)c(C(=O)NOCCO)cc21 [Selumetinib]; conditions: max 10 µM
Outline: as §1

SRA737 = compound: N#Cc1cnc(Nc2cc(NC[C@H]3CNCCO3)c(C(F)(F)F)cn2)cn1 [SRA737]; conditions: max 10 µM
Outline: as §1

MK-2206 = compound: NC1(c2ccc(-c3nc4ccn5c(=O)[nH]nc5c4cc3-c3ccccc3)cc2)CCC1 [MK-2206]; conditions: max 10 µM
Outline: as §1

Gemcitabine = compound: Nc1ccn([C@@H]2O[C@H](CO)[C@@H](O)C2(F)F)c(=O)n1 [Gemcitabine]; conditions: max 0.3 µM
Outline: as §1

[1] = compound: O=C(Nc1ccc2[nH]nc(-c3ccncc3)c2c1)[C@@H]1CCN(CC(=O)N2CCN(c3ccc(-c4ncccn4)cc3)CC2)C1; conditions: max 5 µM
Outline: as §1

Olaparib = compound: O=C(c1cc(Cc2n[nH]c(=O)c3ccccc23)ccc1F)N1CCN(C(=O)C2CC2)CC1 [Olaparib]; conditions: max 10 µM
Outline: as §1

5-Fluorouracil = compound: O=c1[nH]cc(F)c(=O)[nH]1 [5-Fluorouracil]; conditions: max 20 µM
Outline: as §1

Cell Line	IC50, cell viability 72 h (Carboplatin)	IC50, cell viability 72 h (AZD5363)	IC50, cell viability 72 h (AZD1775)	IC50, cell viability 72 h (Trametinib)	IC50, cell viability 72 h (Paclitaxel)	IC50, cell viability 72 h (Palbociclib)	IC50, cell viability 72 h (AZD1390)	IC50, cell viability 72 h (Venetoclax)	IC50, cell viability 72 h (Dasatinib)	IC50, cell viability 72 h (SG3199)	IC50, cell viability 72 h (AZD2811)	IC50, cell viability 72 h (SN-38)	IC50, cell viability 72 h (AZD0156)	IC50, cell viability 72 h (AZD4320)	IC50, cell viability 72 h (Alisertib)	IC50, cell viability 72 h (Etoposide)	IC50, cell viability 72 h (Gefitinib)	IC50, cell viability 72 h (Prexasertib)	IC50, cell viability 72 h (Doxorubicin)	IC50, cell viability 72 h (AZD5153)	IC50, cell viability 72 h (Lapatinib)	IC50, cell viability 72 h (AZD8186)	IC50, cell viability 72 h (Crizotinib)	IC50, cell viability 72 h (Savolitinib)	IC50, cell viability 72 h (AZD6738)	IC50, cell viability 72 h (AZD5991)	IC50, cell viability 72 h (AZD7648)	IC50, cell viability 72 h (Taselisib)	IC50, cell viability 72 h (Selumetinib)	IC50, cell viability 72 h (SRA737)	IC50, cell viability 72 h (MK-2206)	IC50, cell viability 72 h (Gemcitabine)	IC50, cell viability 72 h [1]	IC50, cell viability 72 h (Olaparib)	IC50, cell viability 72 h (5-Fluorouracil)
BICR22 (Oral Cavity Carcinoma)	> 10 µM	> 10 µM	1850 nM	> 1000 nM	< 3 nM	> 10 µM	> 300 nM	> 1000 nM	> 2000 nM	> 1 nM	> 1000 nM	6.59 nM	> 3000 nM	> 1000 nM	6.99 µM	3.15 µM	> 10 µM	54.5 nM	158 nM	> 1000 nM	> 10 µM	> 10 µM	> 10 µM	> 1000 nM	3.41 µM	> 1000 nM	> 10 µM	0.928 µM	> 10 µM	> 10 µM	> 10 µM	12.1 nM	> 5 µM	> 10 µM	1.85 µM
CAPAN-2 (Pancreatic Carcinoma)	> 10 µM	> 10 µM	2700 nM	> 1000 nM	> 3000 nM	> 10 µM	> 300 nM	> 1000 nM	210 nM	> 1 nM	> 1000 nM	> 300 nM	> 3000 nM	> 1000 nM	> 10 µM	> 10 µM	> 10 µM	646 nM	> 1000 nM	> 1000 nM	> 10 µM	> 10 µM	> 10 µM	> 1000 nM	> 10 µM	> 1000 nM	> 10 µM	> 10 µM	> 10 µM	> 10 µM	> 10 µM	> 300 nM	> 5 µM	> 10 µM	> 20 µM
FU97 (Gastric Carcinoma)	> 10 µM	> 10 µM	> 3000 nM		> 3000 nM	> 10 µM	> 300 nM	> 1000 nM	> 2000 nM	> 1 nM	> 1000 nM	> 300 nM	> 3000 nM	> 1000 nM	> 10 µM	> 10 µM	> 10 µM	> 1000 nM	> 1000 nM	288 nM	> 10 µM	> 10 µM	> 10 µM	> 1000 nM	> 10 µM	> 1000 nM	> 10 µM	> 10 µM	> 10 µM	> 10 µM	> 10 µM	> 300 nM	> 5 µM	> 10 µM	> 20 µM
